As usually defined, the Ki is the equilibrium dissociation constant of an inhibitor or competing ligand from its target. Read a high Ki as weaker binding. As a reminder, the IC50 is the concentration that gives 50% inhibition. Low values mean inhibition by little substance, high ones a need for much substance. In general, AUC refers to concentration integrated over time.

This is an account of results in ChEMBL document CHEMBL6087427, “Discovery of novel cyclopentane carboxylic acids as potent and selective inhibitors of NaV1.7” (Bioorg Med Chem Lett, 2025).

Data set [1] deals with T1, Sodium channel protein type 9 subunit alpha (Homo sapiens, UniProt Q15858). Briefly: Displacement of [3H]GX-545 from Nav1.7 VSD4 (unknown origin). A general note: Displacement assays read how much labelled ligand stays bound in the presence of the test substance.
Target sequence in this assay (Q15858 whole entry): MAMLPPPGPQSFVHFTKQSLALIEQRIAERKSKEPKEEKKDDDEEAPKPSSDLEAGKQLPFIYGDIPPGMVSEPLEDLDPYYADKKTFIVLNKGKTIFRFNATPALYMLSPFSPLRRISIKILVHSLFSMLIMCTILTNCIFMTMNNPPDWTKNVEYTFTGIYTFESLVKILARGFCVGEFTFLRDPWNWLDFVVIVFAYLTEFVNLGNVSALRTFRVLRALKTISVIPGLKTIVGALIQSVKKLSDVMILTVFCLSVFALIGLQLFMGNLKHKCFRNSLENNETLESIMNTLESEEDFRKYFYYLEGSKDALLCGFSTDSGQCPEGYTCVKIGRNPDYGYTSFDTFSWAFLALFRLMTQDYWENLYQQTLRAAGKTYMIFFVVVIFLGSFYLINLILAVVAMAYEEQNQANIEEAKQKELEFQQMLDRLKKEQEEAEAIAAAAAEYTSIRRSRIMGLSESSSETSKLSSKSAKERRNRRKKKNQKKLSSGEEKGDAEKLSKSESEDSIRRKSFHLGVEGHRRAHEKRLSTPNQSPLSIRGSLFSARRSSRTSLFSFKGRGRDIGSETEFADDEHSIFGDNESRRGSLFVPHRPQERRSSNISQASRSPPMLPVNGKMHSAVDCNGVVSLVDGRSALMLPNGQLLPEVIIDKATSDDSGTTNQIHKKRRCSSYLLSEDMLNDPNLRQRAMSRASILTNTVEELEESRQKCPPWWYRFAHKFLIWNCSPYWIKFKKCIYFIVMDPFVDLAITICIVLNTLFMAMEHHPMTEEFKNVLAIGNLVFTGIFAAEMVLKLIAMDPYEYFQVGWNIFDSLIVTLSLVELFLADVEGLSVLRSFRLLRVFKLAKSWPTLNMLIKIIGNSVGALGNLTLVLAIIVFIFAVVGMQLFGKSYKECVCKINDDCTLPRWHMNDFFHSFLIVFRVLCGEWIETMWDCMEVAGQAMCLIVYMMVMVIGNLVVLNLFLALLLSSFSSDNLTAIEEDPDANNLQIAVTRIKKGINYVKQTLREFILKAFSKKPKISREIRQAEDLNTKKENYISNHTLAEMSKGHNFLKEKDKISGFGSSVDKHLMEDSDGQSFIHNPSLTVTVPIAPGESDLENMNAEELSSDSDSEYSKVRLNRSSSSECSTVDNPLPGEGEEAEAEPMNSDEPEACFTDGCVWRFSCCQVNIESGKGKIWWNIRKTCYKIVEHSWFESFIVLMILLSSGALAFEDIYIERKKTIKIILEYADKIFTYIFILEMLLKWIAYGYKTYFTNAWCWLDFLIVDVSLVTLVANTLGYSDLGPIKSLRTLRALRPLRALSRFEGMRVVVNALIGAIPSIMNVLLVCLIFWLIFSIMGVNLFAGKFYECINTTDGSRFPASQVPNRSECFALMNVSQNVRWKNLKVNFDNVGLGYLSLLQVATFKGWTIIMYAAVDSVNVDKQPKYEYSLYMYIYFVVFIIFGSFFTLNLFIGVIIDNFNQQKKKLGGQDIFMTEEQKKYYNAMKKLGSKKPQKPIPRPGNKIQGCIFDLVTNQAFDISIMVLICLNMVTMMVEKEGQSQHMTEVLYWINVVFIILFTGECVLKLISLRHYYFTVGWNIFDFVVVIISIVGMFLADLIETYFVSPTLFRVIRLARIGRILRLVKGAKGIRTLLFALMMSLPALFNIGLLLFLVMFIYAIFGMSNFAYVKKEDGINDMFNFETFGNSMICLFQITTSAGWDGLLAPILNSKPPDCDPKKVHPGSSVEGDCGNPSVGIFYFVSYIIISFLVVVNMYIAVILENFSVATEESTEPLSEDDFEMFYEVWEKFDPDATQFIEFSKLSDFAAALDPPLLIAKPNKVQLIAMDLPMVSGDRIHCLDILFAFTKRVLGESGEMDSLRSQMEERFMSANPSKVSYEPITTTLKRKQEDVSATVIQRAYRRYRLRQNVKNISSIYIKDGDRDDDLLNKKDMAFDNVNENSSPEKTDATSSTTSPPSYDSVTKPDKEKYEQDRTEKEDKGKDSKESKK
For data set [2], the target named is T1, Sodium channel protein type 9 subunit alpha. The data set is described as follows: Inhibition of human Nav1.7 by patch clamp electrophysiology.
Target sequence in this assay (Q15858 whole entry): as above
Data set [3] has as its target Sodium channel protein type 5 subunit alpha (Homo sapiens, UniProt Q14524). The data set is described as follows: Inhibition of human Nav1.5 by patch clamp electrophysiology.
Data set [4] deals with T1, Sodium channel protein type 9 subunit alpha. The data set is described as follows: Inhibition of human Nav1.7 by sodium flux assay.
Target sequence in this assay (Q15858 whole entry): as above
The target is the same in data set [5]. Briefly: Inhibition of human Nav1.7 assessed as fold shift in IC50 in presence of BSA by sodium flux assay.
Target sequence in this assay (Q15858 whole entry, looked up): as the sequence (Q15858 whole entry) above
The nature of data set [6]: Metabolic stability in human liver microsomes assessed as hepatic clearance. Type of data set: ADME, Microsome. (In general: Liver microsomes are vesicles of endoplasmic reticulum, rich in cytochrome P450 enzymes.)
Data set [7] in a line: Metabolic stability in mouse liver microsomes assessed as hepatic clearance. Type of data set: ADME, Microsome.
Data set [8] is described as follows: AUC in mouse at 3 mg/kg, po. Type of data set: ADME, organism-based. The note with it: in vivo, read-out: AUC.

Sodium channel protein type 5 subunit alpha, sequence (Q14524 whole entry): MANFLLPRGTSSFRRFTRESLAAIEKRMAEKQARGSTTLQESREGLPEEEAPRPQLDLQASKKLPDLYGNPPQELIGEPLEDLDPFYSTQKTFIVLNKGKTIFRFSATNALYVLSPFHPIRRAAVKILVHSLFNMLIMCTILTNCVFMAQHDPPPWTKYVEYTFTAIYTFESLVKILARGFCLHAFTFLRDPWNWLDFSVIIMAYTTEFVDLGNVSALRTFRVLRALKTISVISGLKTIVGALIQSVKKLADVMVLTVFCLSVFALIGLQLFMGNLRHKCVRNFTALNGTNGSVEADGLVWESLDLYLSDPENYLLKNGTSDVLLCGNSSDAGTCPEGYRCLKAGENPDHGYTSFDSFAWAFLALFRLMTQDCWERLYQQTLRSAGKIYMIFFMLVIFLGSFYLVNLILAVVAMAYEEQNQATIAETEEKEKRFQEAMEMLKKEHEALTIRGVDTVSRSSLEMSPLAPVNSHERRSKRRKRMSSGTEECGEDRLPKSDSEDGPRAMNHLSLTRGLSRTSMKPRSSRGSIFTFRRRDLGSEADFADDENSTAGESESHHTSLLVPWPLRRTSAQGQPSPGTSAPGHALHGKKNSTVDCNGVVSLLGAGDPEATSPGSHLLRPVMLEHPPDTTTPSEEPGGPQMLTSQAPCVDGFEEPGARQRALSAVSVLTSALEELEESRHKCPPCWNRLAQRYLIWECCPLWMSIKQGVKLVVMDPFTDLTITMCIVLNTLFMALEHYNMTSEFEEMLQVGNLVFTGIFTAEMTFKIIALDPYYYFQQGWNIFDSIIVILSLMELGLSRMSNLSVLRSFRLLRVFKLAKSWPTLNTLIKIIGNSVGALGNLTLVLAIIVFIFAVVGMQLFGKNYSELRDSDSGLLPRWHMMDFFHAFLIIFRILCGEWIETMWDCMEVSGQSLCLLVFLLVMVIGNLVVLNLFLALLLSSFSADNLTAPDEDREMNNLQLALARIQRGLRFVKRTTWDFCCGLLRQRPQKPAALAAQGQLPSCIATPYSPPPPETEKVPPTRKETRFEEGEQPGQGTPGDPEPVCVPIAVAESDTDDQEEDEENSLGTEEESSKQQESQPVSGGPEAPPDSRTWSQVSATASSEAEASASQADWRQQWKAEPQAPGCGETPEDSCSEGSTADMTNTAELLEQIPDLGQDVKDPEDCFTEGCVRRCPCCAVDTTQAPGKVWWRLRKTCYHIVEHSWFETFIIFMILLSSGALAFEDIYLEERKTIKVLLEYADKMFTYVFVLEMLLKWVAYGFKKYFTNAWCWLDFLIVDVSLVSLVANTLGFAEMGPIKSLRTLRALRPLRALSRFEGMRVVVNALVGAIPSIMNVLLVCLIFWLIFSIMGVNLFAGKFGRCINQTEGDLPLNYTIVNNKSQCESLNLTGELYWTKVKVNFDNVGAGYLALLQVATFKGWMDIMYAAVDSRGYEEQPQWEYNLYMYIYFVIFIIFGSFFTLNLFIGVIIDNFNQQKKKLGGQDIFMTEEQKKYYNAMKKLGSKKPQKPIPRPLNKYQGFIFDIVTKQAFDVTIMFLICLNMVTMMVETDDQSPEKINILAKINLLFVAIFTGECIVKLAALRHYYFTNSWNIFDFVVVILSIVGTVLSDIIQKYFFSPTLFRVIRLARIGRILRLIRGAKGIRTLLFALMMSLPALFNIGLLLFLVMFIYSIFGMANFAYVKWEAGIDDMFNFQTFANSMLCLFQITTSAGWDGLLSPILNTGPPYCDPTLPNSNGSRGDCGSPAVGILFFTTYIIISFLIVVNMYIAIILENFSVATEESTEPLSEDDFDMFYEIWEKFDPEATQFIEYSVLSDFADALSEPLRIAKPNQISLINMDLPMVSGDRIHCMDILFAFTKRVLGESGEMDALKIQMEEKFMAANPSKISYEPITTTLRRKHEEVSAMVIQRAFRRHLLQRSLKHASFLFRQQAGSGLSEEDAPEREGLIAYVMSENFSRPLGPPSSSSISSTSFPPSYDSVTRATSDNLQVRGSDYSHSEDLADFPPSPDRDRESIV

In turn, `C[C@@H]1[C@@H](C(=O)O)[C@H](C(=O)c2cc(C3CC3)c(OCC34CC5CC(CC(C5)C3)C4)cc2F)C[C@@H]1F` yielded a Ki in data set [1] of 1.8 nM. Also, the concentration for half-maximal inhibition (IC50) in data set [2] was 10 nM; in data set [3], 6000 nM; in data set [4], 160 nM. The fold change (FC) in data set [5] is 1. In addition, the CLhep predicted in data set [6] was 11 mL/min/kg; in data set [7] it was 53 mL/min/kg. Also, the area under the curve (AUC) in data set [8] stood at 0.24 µM·h.

Compound `C[C@H]1CCN(C(=O)c2cc(C3CC3)c(OCC34CC5CC(CC(C5)C3)C4)cc2F)[C@@H]1C(=O)O` had a Ki in data set [1] of 10 nM.

In data set [1], `O=C(O)[C@@H]1C[C@@H](O)CN1C(=O)c1cc(C2CC2)c(OCC23CC4CC(CC(C4)C2)C3)cc1F` displayed a Ki of 390 nM.

In data set [1], `C[C@H]1C[C@@H](C(=O)O)N(C(=O)c2cc(C3CC3)c(OCC34CC5CC(CC(C5)C3)C4)cc2F)C1` had a Ki of 49 nM. Compared with the last compound, the Ki is about 8-fold lower.

As to `CC1(C)CCN(C(=O)c2cc(C3CC3)c(OCC34CC5CC(CC(C5)C3)C4)cc2F)[C@@H]1C(=O)O`, the inhibition constant Ki in data set [1] came to 58 nM. This Ki and that of the compound before are within 1.5-fold of each other.

The compound `O=C(O)[C@@H]1[C@@H](F)CCN1C(=O)c1cc(C2CC2)c(OCC23CC4CC(CC(C4)C2)C3)cc1F` returned a Ki in data set [1] of 60 nM.

For the compound `O=C(O)[C@@H]1C[C@H](F)CN1C(=O)c1cc(C2CC2)c(OCC23CC4CC(CC(C4)C2)C3)cc1F`, the Ki in data set [1] was 560 nM.

As for `N#C[C@H]1C[C@@H](C(=O)O)N(C(=O)c2cc(C3CC3)c(OCC34CC5CC(CC(C5)C3)C4)cc2F)C1`, affinity in data set [1] was put at a Ki of 870 nM.

Compound `O=C(O)[C@@H]1C2CC(C2)N1C(=O)c1cc(C2CC2)c(OCC23CC4CC(CC(C4)C2)C3)cc1F` gave a Ki in data set [1] of 190 nM.

For `CO[C@@H]1CN(C(=O)c2cc(C3CC3)c(OCC34CC5CC(CC(C5)C3)C4)cc2F)[C@H](C(=O)O)[C@H]1C`, the affinity in data set [1], expressed as Ki, was 36 nM.

For the compound `N#C[C@@H]1C[C@@H](C(=O)O)N(C(=O)c2cc(C3CC3)c(OCC34CC5CC(CC(C5)C3)C4)cc2F)C1`, the Ki in data set [1] came out at 120 nM.

With `C[C@@H]1[C@@H](C(=O)O)N(C(=O)c2cc(C3CC3)c(OCC34CC5CC(CC(C5)C3)C4)cc2F)C[C@@H]1F`, the affinity in data set [1] corresponds to a Ki of 6.4 nM. Also, the IC50 in data set [2] stood at 10 nM; in data set [3], 5800 nM. The fold change (FC) in data set [5] turned out to be 1. For the same compound, the results for the CLhep predicted in data set [6] and in data set [7] were 13 mL/min/kg and 64 mL/min/kg, respectively. Moreover, the AUC in data set [8] was 0.16 µM·h.

Take `O=C(O)[C@@H]1CCCN1C(=O)c1cc(C2CC2)c(OCC23CC4CC(CC(C4)C2)C3)cc1F`: affinity in data set [1] was put at a Ki of 20 nM. Besides, the IC50 in data set [2] worked out at 33 nM; in data set [4] it was 180 nM. For the same compound, the fold change (FC) in data set [5] turned out to be 2.2. The figures for the CLhep predicted in data set [6] and in data set [7] were 11 mL/min/kg and 61 mL/min/kg, respectively. In addition, the exposure (AUC) in data set [8] came out at 0.079 µM·h.
